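Assay format: 96-well plates, 48-hour exposure. GI50: concentration for 50% inhibition of growth.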 Active and inactive are the calls of the source. No stated cut-off is given here; in the data, active = GI50 up to about 1.1 µM and inactive = higher. Non-standard residues stand in square brackets, D forms with d. Residues, ends and D or L forms follow the SMILES beside them. β3hI = CC[CH](C)[CH](N)CC(=O)O
Assays:
Assay in all cases: NCI tumour cell line growth inhibition, 48 h
[1] = system: 786-0
[2] = system: LOX IMVI
[3] = system: SK-MEL-28
[4] = system: SNB-75
[5] = system: OVCAR-5
[6] = system: SK-MEL-5
[7] = system: HOP-92
[8] = system: COLO 205
[9] = system: SF-295
[10] = system: CAKI-1
[11] = system: MCF7
[12] = system: HCT-116
[13] = system: DU-145
[14] = system: SNB-19
[15] = system: SK-MEL-2
[16] = system: UO-31
[17] = system: T47D
[18] = system: U-251
[19] = system: NCI-H226

Measured: GI50

CCCSc1ccc2[nH]c(/N=C/c3ccco3)cc2c1
inactive: [1] 40.2 µM | [2] 37.7 µM | [3] 41.8 µM | [4] > 100 µM | [5] 6.08 µM | [6] 13.7 µM | [7] 81.8 µM | [8] 22 µM | [9] > 100 µM | [10] 34 µM | [11] 6.34 µM | [12] 35.4 µM | [13] 63.5 µM | [14] > 100 µM | [15] 23.7 µM | [16] 41.9 µM | [17] 38.1 µM

COc1ccc(OC)c2sc(N3C(=O)/C(=C/c4ccccc4S)N=C3c3ccccc3)nc12
inactive: [1] 59.2 µM | [18] 23.8 µM | [2] 24.9 µM | [3] > 100 µM | [4] 16.5 µM | [5] > 100 µM | [6] 18.4 µM | [7] > 100 µM | [8] 32.8 µM | [9] 52.4 µM | [10] 95.9 µM | [11] 18.7 µM | [12] 28.2 µM | [13] 49.4 µM | [14] 69.2 µM | [15] 25.8 µM | [16] 28.1 µM | [17] 24.2 µM

OCC1OC(NC(=S)NCCC(F)(F)C(F)(F)C(F)(F)C(F)(F)C(F)(F)C(F)(F)F)C(O)C(O)C1O (stereo unspecified)
inactive: [1] > 100 µM | [18] 37.3 µM | [2] 49.5 µM | [3] 72.9 µM | [4] > 100 µM | [5] > 100 µM | [6] 35.6 µM | [7] 29.2 µM | [8] > 100 µM | [9] 80.9 µM | [10] > 100 µM | [11] > 100 µM | [12] 80.4 µM | [13] > 100 µM | [14] 69.8 µM | [15] > 100 µM | [16] > 100 µM | [17] > 100 µM

Cc1ccc(O)c(-c2cc(-c3cccc(Br)c3)on2)c1
inactive: [1] 40.4 µM | [18] 17 µM | [2] 16.3 µM | [3] 23.8 µM | [4] 12.2 µM | [5] 35.8 µM | [6] 18.1 µM | [7] 22.2 µM | [8] 18.2 µM | [9] 32.4 µM | [10] 23.4 µM | [11] 13.2 µM | [12] 20 µM | [13] 33.6 µM | [14] 39.3 µM | [15] 21.5 µM | [16] 70.3 µM | [17] 28.2 µM

[N-]=[N+]=Nc1c(Cl)c(=O)n(-c2ccccc2)c2ccccc12
inactive: [1] 18.3 µM | [18] > 10 µM | [2] 14.9 µM | [3] 17.6 µM | [4] 18.5 µM | [5] 24.3 µM | [6] 3.15 µM | [7] 19.3 µM | [8] 25.8 µM | [9] 30.7 µM | [10] 21.7 µM | [11] 21.8 µM | [12] 17.8 µM | [13] 29.2 µM | [14] 28.9 µM | [15] 20.7 µM | [16] 23.9 µM | [17] 11.8 µM

COc1ccc2c(cnc3c4cc(OC)c(OC)cc4ccc23)c1
inactive: [1] > 100 µM | [18] > 100 µM | [2] > 100 µM | [19] > 100 µM | [3] > 100 µM | [5] > 100 µM | [6] > 100 µM | [7] > 100 µM | [8] > 100 µM | [9] > 100 µM | [10] > 100 µM | [11] > 100 µM | [12] > 100 µM | [13] > 100 µM | [14] > 100 µM | [15] > 100 µM | [16] > 100 µM | [17] > 100 µM

CC(C)=C=CP(=O)(O)c1ccccc1
inactive: [1] > 100 µM | [18] > 100 µM | [2] > 100 µM | [19] > 100 µM | [3] > 100 µM | [4] > 100 µM | [5] > 100 µM | [6] > 100 µM | [7] > 100 µM | [8] > 100 µM | [9] > 100 µM | [10] > 100 µM | [11] > 100 µM | [12] > 100 µM | [13] > 100 µM | [14] > 100 µM | [15] > 100 µM | [17] > 100 µM

O=c1oc2c(Br)c(O)c(Br)cc2c2ccccc12
inactive: [1] 42.1 µM | [18] 32.1 µM | [2] 23.8 µM | [19] 27.1 µM | [3] 35.3 µM | [4] 32 µM | [5] 35 µM | [6] 24.5 µM | [7] 22.5 µM | [8] 29.9 µM | [9] 34 µM | [10] 16 µM | [11] 16.3 µM | [12] 29.4 µM | [13] 29.3 µM | [14] 30.3 µM | [15] 28.2 µM | [17] 25 µM

CC1=NN(C(=O)CC(=O)Nc2ccccc2C)C(=O)C1/N=N/c1ccc(C(=O)O)cc1 (stereo unspecified)
inactive: [1] > 100 µM | [18] > 100 µM | [2] 79.3 µM | [3] > 100 µM | [4] 70.5 µM | [5] > 100 µM | [6] > 100 µM | [7] 20.5 µM | [8] > 100 µM | [9] > 100 µM | [10] > 100 µM | [11] > 100 µM | [12] > 100 µM | [13] > 100 µM | [14] > 100 µM | [15] > 100 µM | [16] 48.6 µM | [17] 44.1 µM

CCOC(=O)N1CCN(c2c(N)nc(C)nc2O)CC1
inactive: [1] > 100 µM | [18] > 100 µM | [2] > 100 µM | [19] > 100 µM | [3] > 100 µM | [4] > 100 µM | [5] > 100 µM | [7] > 100 µM | [8] > 100 µM | [9] > 100 µM | [11] > 100 µM | [12] > 100 µM | [13] > 100 µM | [14] > 100 µM | [15] > 100 µM | [16] > 100 µM | [17] > 100 µM

CCC(C)C(CC(=O)N1CCCC1C(=O)NC(C(=O)NC(C(=O)NCC(=O)NC(CC(N)=O)C(=O)NC(C(=O)NC(C(=O)NC(CCCCN)C(N)=O)C(C)CC)C(C)CC)C(C)C)C(C)CC)NC(=O)C(N)C(C)CC (stereo not drawn) (H-I[β3hI]PIVGNIIK-NH2; configuration not given here)
inactive: [1] > 50 µM | [18] > 50 µM | [2] > 50 µM | [19] > 50 µM | [3] > 50 µM | [5] > 50 µM | [6] > 50 µM | [7] > 50 µM | [8] > 50 µM | [9] > 50 µM | [10] > 50 µM | [11] > 50 µM | [12] > 50 µM | [13] > 50 µM | [14] > 50 µM | [15] > 50 µM | [16] > 50 µM | [17] > 50 µM

Reference: ChEMBL document CHEMBL1201862, “PubChem BioAssay data set” (2004)
